The term Ki denotes a measure of affinity in units of concentration, obtained from inhibition or displacement.

For the assay, the target named is Phospho-2-dehydro-3-deoxyheptonate aldolase (Escherichia coli, UniProt C3TIE2). Kind of assay: Competitive inhibition of recombinant Escherichia coli DAH7P synthase using PEP as substrate by Michaelis-Menten equation analysis using UV-visible spectrophotometry.
Chain of Phospho-2-dehydro-3-deoxyheptonate aldolase (C3TIE2 1-350): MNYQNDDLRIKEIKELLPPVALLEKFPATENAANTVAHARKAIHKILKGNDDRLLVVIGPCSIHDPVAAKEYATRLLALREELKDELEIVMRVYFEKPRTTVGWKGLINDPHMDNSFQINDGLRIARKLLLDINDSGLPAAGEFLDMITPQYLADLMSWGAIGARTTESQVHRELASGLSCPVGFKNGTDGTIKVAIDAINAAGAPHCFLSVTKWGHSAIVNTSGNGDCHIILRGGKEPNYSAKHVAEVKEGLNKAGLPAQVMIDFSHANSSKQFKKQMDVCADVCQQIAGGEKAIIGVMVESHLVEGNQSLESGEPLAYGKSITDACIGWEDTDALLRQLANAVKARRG

Take `O=C(O)C(=CCCCCOP(=O)(O)O)CP(=O)(O)O`: the Ki is 154 µM.

For the origin of these results see BindingDB's records for doi:10.1016/j.bmcl.2011.03.071 (University of Canterbury, 2011).
